Measured values published in patent US20240199542A1, “SUBSTITUTED PYRROLIDIN-2-ONES, SALTS THEREOF AND THEIR USE AS HERBICIDALLY ACTIVE SUBSTANCES” (Bayer Aktiengesellschaft, priority 2021, published 2024).

What was measured:
Assay type in all cases: in vivo
[1] = system: Pharbitis purpurea (PHBPU); test: Herbicidal pre-emergence action; conditions: 1280 g/ha, graded after ca. 3 weeks
Procedure, shortened: (§1)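 Sown seeds in sandy loam received the formulated compounds on the covering soil at application rates up to 1280 g/ha, applied in 600 l water/ha with 0.5% additive. Damage was graded visually after about 3 weeks relative to untreated plants.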

[2] = system: Echinochloa crus-galli (ECHCG); test: Herbicidal post-emergence action; conditions: 1280 g/ha, assessed after ca. 3 weeks
Procedure, shortened: (§2)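 Applied rates were 1280 or 320 g/ha, as aqueous WP or EC spray with 0.5% additive at 600 l water/ha onto single-leaf-stage plants grown 2–3 weeks in sandy loam. Effect was rated visually about 3 weeks later, 0% matching controls and 100% plants dead.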

Stellaria media (STEME) = test: Herbicidal post-emergence action; conditions: 1280 g/ha, assessed after ca. 3 weeks
Procedure, shortened: as §2

Avena fatua (AVEFA) [3] = test: Herbicidal post-emergence action; conditions: 1280 g/ha, assessed after ca. 3 weeks
Procedure, shortened: as §2

[4] = system: Amaranthus retroflexus (AMARE); test: Herbicidal post-emergence action; conditions: 1280 g/ha, assessed after ca. 3 weeks
Procedure, shortened: as §2

[5] = system: Echinochloa crus-galli (ECHCG); test: Herbicidal pre-emergence action; conditions: 1280 g/ha, graded after ca. 3 weeks
Procedure, shortened: as §1

[6] = system: Polygonum convolvulus (POLCO); test: Herbicidal pre-emergence action; conditions: graded after ca. 3 weeks
Procedure, shortened: as §1

[7] = system: Alopecurus myosuroides (ALOMY); test: Herbicidal pre-emergence action; conditions: 1280 g/ha, graded after ca. 3 weeks
Procedure, shortened: as §1

Avena fatua (AVEFA) [8] = test: Herbicidal pre-emergence action; conditions: 1280 g/ha, graded after ca. 3 weeks
Procedure, shortened: as §1

[9] = system: Digitaria sanguinalis (DIGSA); test: Herbicidal post-emergence action; conditions: assessed after ca. 3 weeks
Procedure, shortened: as §2

Lolium rigidum (LOLRI) [10] = test: Herbicidal post-emergence action; conditions: 320 g/ha, assessed after ca. 3 weeks
Procedure, shortened: as §2

[11] = system: Alopecurus myosuroides (ALOMY); test: Herbicidal post-emergence action; conditions: 1280 g/ha, assessed after ca. 3 weeks
Procedure, shortened: as §2

Setaria viridis (SETVI) [12] = test: Herbicidal post-emergence action; conditions: 1280 g/ha, assessed after ca. 3 weeks
Procedure, shortened: as §2

[13] = system: Lolium multiflorum (LOLMU); test: Herbicidal post-emergence action; conditions: 1280 g/ha, assessed after ca. 3 weeks
Procedure, shortened: as §2

[14] = system: Cyperus esculentus (CYPES); test: Herbicidal post-emergence action; conditions: 1280 g/ha, assessed after ca. 3 weeks
Procedure, shortened: as §2

Glycine max (GLXMA) [15] = test: Post-emergence effects on crop plants; conditions: 320 g/ha, crop plant
Description: (§3) Seeds of mono- and dicotyledonous weed plants and crop plants were sown, in plastic or organic planting pots, in sandy loam, covered with soil and grown in a greenhouse under controlled growth conditions. 2 to 3 weeks after sowing, the test plants were sprayed in the single-leaf stage. The compounds according to the invention, formulated in form of wettable powders (WP) or as emulsifiable concentrates (EC), were sprayed onto the green plant parts as aqueous suspension or emulsion, with the addition of 0.5% of an additive, at an application rate of 600 1 of water/ha (converted). The test plants were placed in the greenhouse for ca. 3 weeks under optimum growth conditions, and then the effect of the preparations was assessed visually in comparison with untreated controls (herbicidal effect in percent (%): 100% effect=plants have died off, 0% effect=as control plants).
(§4) Tables D1 to D3 below show the effects of selected compounds of the general formula (I) according to table 1 on various crop plants and an application rate corresponding to 320 g/ha or below obtained by the experimental procedure mentioned above in biology section B.

Brassica napus (BRSNW) [16] = test: Post-emergence effects on crop plants; conditions: crop plant Brassica napus (BRSNW)
Description: as §3, §4

Zea Mays (ZEAMX) [17] = test: Post-emergence effects on crop plants; conditions: 80 g/ha, crop plant
Description: as §3, §4

[18] = system: Digitaria sanguinalis (DIGSA); test: Herbicidal pre-emergence action; conditions: graded after ca. 3 weeks
Procedure, shortened: as §1

Lolium rigidum (LOLRI) [19] = test: Herbicidal pre-emergence action; conditions: 320 g/ha, graded after ca. 3 weeks
Procedure, shortened: as §1

Viola tricolor (VIOTR) = test: Herbicidal pre-emergence action; conditions: 320 g/ha, graded after ca. 3 weeks
Procedure, shortened: as §1

Setaria viridis (SETVI) [20] = test: Herbicidal pre-emergence action; conditions: graded after ca. 3 weeks
Procedure, shortened: as §1

[21] = system: Lolium multiflorum (LOLMU); test: Herbicidal pre-emergence action; conditions: 1280 g/ha, graded after ca. 3 weeks
Procedure, shortened: as §1

Glycine max (GLXMA) [22] = test: Pre-emergence effects on crop plants; conditions: 320 g/ha, crop plant
Description: (§5) Seeds of mono- and dicotyledonous weed plants and crop plants were sown, in plastic or organic planting pots, in sandy loam and covered with soil. The compounds according to the invention, formulated in the form of wettable powders (WP) or as emulsifiable concentrates (EC), were applied to the surface of the covering soil as aqueous suspension or emulsion, with the addition of 0.5% of an additive, at an application rate of 600 1 of water/ha (converted).
(§6) Following treatment, the pots were placed in a greenhouse and kept under optimum growth conditions for the test plants. The visual grading of the damage to the test plants was carried out after ca. 3 weeks in comparison to untreated controls (herbicidal effect in percent (%): 100% effect=plants have died off, 0% effect=as control plants).
(§7) Tables C1 to C3 below show the effects of selected compounds of the general formula (I) according to table 1 on various crop plants and an application rate corresponding to 320 g/ha or below obtained by the experimental procedure mentioned above in biology section A.

Brassica napus (BRSNW) [23] = test: Pre-emergence effects on crop plants; conditions: 320 g/ha, crop plant
Description: as §5, §6, §7

Zea Mays (ZEAMX) [24] = test: Pre-emergence effects on crop plants; conditions: 80 g/ha, crop plant
Description: as §5, §6, §7

Poa annua (POAAN) [25] = test: Herbicidal post-emergence action; conditions: assessed after ca. 3 weeks
Procedure, shortened: as §2

Poa annua (POAAN) [26] = test: Herbicidal pre-emergence action; conditions: graded after ca. 3 weeks
Procedure, shortened: as §1

## O=C(CC1CCC(=O)N1Cc1cccc(F)c1F)NCC(F)(F)F (racemic) [Example I-090]
[1]
  Pre-emergence activity against PHBPU: 100%

## CC1(C)CCC(=O)C(C(=O)CC2CCC(=O)N2Cc2cccc(F)c2F)C1=O (racemic) [Example I-178]
[2]
  Post-emergence activity against ECHCG: 90%
Stellaria media (STEME)
  Post-emergence activity against STEME: 80%
Avena fatua (AVEFA) [3]
  Post-emergence activity against AVEFA: 80%
[4]
  Post-emergence activity against AMARE: 100%
[1]
  Pre-emergence activity against PHBPU: 90%
[5]
  Pre-emergence activity against ECHCG: 90%
[6]; 1280 g/ha
  Pre-emergence activity against POLCO: 90%
[7]
  Pre-emergence activity against ALOMY: 90%
Avena fatua (AVEFA) [8]
  Pre-emergence activity against AVEFA: 90%

## O=C(O)CC1CCC(=O)N1Cc1cccc(F)c1F (single isomer, unassigned) [Example I-014]
[9]; 320 g/ha
  Post-emergence activity against DIGSA: 80%
[2]
  Post-emergence activity against ECHCG: 90%
Lolium rigidum (LOLRI) [10]
  Post-emergence activity against LOLRI: 80%
[11]
  Post-emergence activity against ALOMY: 80%
Avena fatua (AVEFA) [3]
  Post-emergence activity against AVEFA: 80%
Setaria viridis (SETVI) [12]
  Post-emergence activity against SETVI: 90%
[13]
  Post-emergence activity against LOLMU: 80%
[14]
  Post-emergence activity against CYPES: 80%
Glycine max (GLXMA) [15]
  post-emergence activity against GLXMA (crop damage): 0%
Brassica napus (BRSNW) [16]; application rate 80 g/ha
  post-emergence activity against BRSNW: 0%
Zea Mays (ZEAMX) [17]
  post-emergence activity against ZEAMX (crop damage): 0%
[18]; 320 g/ha
  Pre-emergence activity against DIGSA: 100%
[5]
  Pre-emergence activity against ECHCG: 80%
[6]; 320 g/ha
  Pre-emergence activity against POLCO: 90%
Lolium rigidum (LOLRI) [19]
  Pre-emergence activity against LOLRI: 90%
[7]
  Pre-emergence activity against ALOMY: 100%
Avena fatua (AVEFA) [8]
  Pre-emergence activity against AVEFA: 100%
Viola tricolor (VIOTR)
  Pre-emergence activity against VIOTR: 90%
Setaria viridis (SETVI) [20]; 320 g/ha
  Pre-emergence activity against SETVI: 90%
[21]
  Pre-emergence activity against LOLMU: 90%
Glycine max (GLXMA) [22]
  pre-emergence activity against GLXMA (crop damage): 0%
Brassica napus (BRSNW) [23]
  pre-emergence activity against BRSNW (crop damage): 0%
Zea Mays (ZEAMX) [24]
  pre-emergence activity against ZEAMX (crop damage): 0%

## O=C(O)CC1CCC(=O)N1Cc1ccc(F)c(F)c1F (stereo not drawn) [Example I-192, [5-Oxo-1-(2,3,4-trifluorobenzyl)pyrrolidin-2-yl]acetic acid]
[9]; 1280 g/ha
  Post-emergence activity against DIGSA: 90%
[2]
  Post-emergence activity against ECHCG: 90%
Poa annua (POAAN) [25]; 320 g/ha
  Post-emergence activity against POAAN: 100%
Poa annua (POAAN) [25]; 1280 g/ha
  Post-emergence activity against POAAN: 100%
Brassica napus (BRSNW) [16]; application rate 320 g/ha
  post-emergence activity against BRSNW: 0%
[18]; 320 g/ha
  Pre-emergence activity against DIGSA: 90%
[18]; 1280 g/ha
  Pre-emergence activity against DIGSA: 90%
[5]
  Pre-emergence activity against ECHCG: 80%
Lolium rigidum (LOLRI) [19]
  Pre-emergence activity against LOLRI: 90%
[7]
  Pre-emergence activity against ALOMY: 90%
Poa annua (POAAN) [26]; 320 g/ha
  Pre-emergence activity against POAAN: 100%
Poa annua (POAAN) [26]; 1280 g/ha
  Pre-emergence activity against POAAN: 100%
Setaria viridis (SETVI) [20]; 1280 g/ha
  Pre-emergence activity against SETVI: 90%

## O=C(CC1CCC(=O)N1Cc1cccc(F)c1F)Nc1ncns1 (stereo not drawn) [Example I-193, 2-[1-[(2,3-difluorophenyl)methyl]-5-oxo-pyrrolidin-2-yl]-N-(1,2,4-thiadiazol-5-yl)acetamide]
Poa annua (POAAN) [25]; 1280 g/ha
  Post-emergence activity against POAAN: 90%
Poa annua (POAAN) [26]; 1280 g/ha
  Pre-emergence activity against POAAN: 90%
